Data taken from PubChem BioAssay (NCI).
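Dose response: 5 concentrations. Exposure: 48 h. Format: 96-well plates. Endpoint: linear interpolation; highest concentration if not reached. GI50: concentration for 50% inhibition of growth. The concentration for full growth arrest is given as TGI.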

How the values were obtained:
Assay in all cases: growth of human tumour cells (NCI), 48 h
786-0 renal = system: 786-0 renal
BT-549 breast = system: BT-549 breast
IGROV1 ovarian = system: IGROV1 ovarian
MCF7 breast = system: MCF7 breast
MDA-MB-435 = system: MDA-MB-435
NCI-H226 lung = system: NCI-H226 lung
NCI/ADR-RES ovarian = system: NCI/ADR-RES ovarian
OVCAR-8 ovarian = system: OVCAR-8 ovarian
SNB-19 CNS = system: SNB-19 CNS
U251 CNS = system: U251 CNS

Row | Structure (SMILES) | GI50 (786-0 renal) [nM] | TGI (786-0 renal) [µM] | GI50 (BT-549 breast) [nM] | TGI (BT-549 breast) [µM] | GI50 (IGROV1 ovarian) [µM] | TGI (IGROV1 ovarian) [µM] | GI50 (MCF7 breast) [nM] | TGI (MCF7 breast) [µM] | GI50 (MDA-MB-435) [nM] | TGI (MDA-MB-435) [nM] | GI50 (NCI-H226 lung) [µM] | TGI (NCI-H226 lung) [µM] | GI50 (NCI/ADR-RES ovarian) [nM] | TGI (NCI/ADR-RES ovarian) [µM] | GI50 (OVCAR-8 ovarian) [µM] | TGI (OVCAR-8 ovarian) [µM] | GI50 (SNB-19 CNS) [nM] | TGI (SNB-19 CNS) [µM] | GI50 (U251 CNS) [nM] | TGI (U251 CNS) [µM]
1 | Nc1c(C(=O)c2cccc(OCCN3CCOCC3)c2)cnn1-c1ccc(F)cc1 | > 25000 | > 25 | > 25000 | > 25 | > 25 | > 25 | > 25000 | > 25 | > 25000 | > 25000 | > 25 | > 25 | > 25000 | > 25 | > 25 | > 25 | > 25000 | > 25 | > 25000 | > 25
2 | CC(CN)[C@@H]1CC[C@]2(CO)CC[C@]3(C)[C@H](CC[C@@H]4[C@@]5(C)CCC(NCCO)C(C)(C)[C@@H]5CC[C@]43C)[C@@H]12 (stereo not given in full) | 1550 | 3 | 3770 | 16.3 | 4.79 | 19.2 | 1780 | 3.62 | 1700 | 3140 | 3.94 | 17.5 | 6830 | 22.2 | 1.69 | 3.28 | 1800 | 3.54 | 1600 | 2.95
3 | Cc1ccc(N=C2CSc3nnc(-c4csc5c4CCCC5)n3N2)cc1 | 297 | > 50 | 458 | > 50 | 0.446 | > 50 | 165 | > 50 | 89.4 | 237 | > 50 | > 50 | 167 | > 50 | 0.223 | > 50 | 222 | > 50 | 200 | > 50
4 | Nc1nc2c(c3ncccc13)C(c1cccc(Cl)c1)Cc1ncccc1-2 (stereo not given) | 3990 | 26.5 | 2280 | 13.3 | 5.36 | > 100 | 514 | 17.6 | 290 | 1170 | 19.6 | 43.2 | 959 | 7.5 | 3.95 | 37.5 | 2500 | 17.7 | 2170 | 15.4
5 | C(CCc1nnc2c(n1)CCCC2)Cc1nnc2c(n1)CCCC2 | – | > 100 | – | > 100 | – | > 100 | – | > 100 | – | > 100000 | – | > 100 | – | > 100 | – | > 100 | – | > 100 | – | > 100
6 | CC[N+](CC)=c1ccc2nc3c(cc(NCc4ccccc4)c4ccccc43)oc-2c1 | 497 | 1.85 | 1140 | 2.51 | 0.258 | 1.67 | 165 | 0.474 | 180 | 352 | 0.358 | 1.83 | 227 | 1.76 | 0.362 | 2.38 | 1190 | 2.51 | 196 | 0.962
7 | CCOC(=O)/C=C1\SC(=Nc2ccc(C#N)cc2)N(CCN2C(=O)/C(=C/C(=O)OCC)SC2=Nc2ccc(C#N)cc2)C1=O | 2080 | 6.33 | 2980 | 16.4 | 1.99 | 10.7 | 353 | 17.7 | 3210 | 16000 | 3.53 | 14.3 | 3210 | 42.3 | 3.65 | > 63.8 | 2120 | 12.9 | 554 | 1.94
8 | COc1ncc(-c2nc3c(n2C(C)C)[C@H](c2ccc(Cl)cc2)N(c2cc(Cl)cn(C)c2=O)C3=O)c(OC)n1 | 67500 | > 100 | 36700 | > 100 | 22.1 | > 100 | 17300 | > 100 | 35300 | > 100000 | 15.1 | 80.4 | 44000 | > 100 | 59.7 | > 100 | 61500 | > 100 | 40500 | > 100
9 | C=C(CN1CCN(c2cccc(C(F)(F)F)c2)CC1)c1ccc(C(=O)Nc2ccccc2N)cc1 | 1100 | 8.96 | 332 | 5.06 | 14.2 | > 50 | 1250 | > 27.5 | 156 | 554 | 1.89 | 20.1 | 2340 | > 50 | 1.4 | 17.2 | 4110 | > 30.2 | 1180 | 5.84
10 | CN1CCN(c2ccc(-c3cnc4c(-c5csc6ccccc56)cnn4c3)cc2)CC1 | 4350 | 12.3 | 7290 | > 15 | 7.55 | > 15 | 2580 | > 15 | 11700 | > 15000 | 13.5 | > 15 | 6200 | > 15 | 5.7 | > 15 | 9250 | > 15 | 4380 | > 15
11 | O=C(O)CCC1COc2ccccc2O1 (stereo not given) | – | > 10 | – | > 10 | – | > 10 | – | > 10 | – | > 10000 | – | > 10 | – | > 10 | – | > 10 | – | > 10 | – | > 10
12 | Nc1nc2ccc([C@@H]3Nc4ccc5[nH]ncc5c4[C@H]4[C@H]5CCC(C5)[C@H]43)cc2s1 | 1400 | 10 | 1250 | 5.25 | 1 | 9.84 | 412 | 1.73 | 293 | 1030 | 1.91 | 5.54 | 966 | 4 | 2.35 | 16.7 | 1300 | 11 | 1180 | 11.5
13 | O=C(Nc1cnn2ccc(N3CCC[C@@H]3c3cc(F)ccc3F)nc12)N1CC[C@H](O)C1 | > 100000 | > 100 | > 100000 | > 100 | > 100 | > 100 | > 100000 | > 100 | > 100000 | > 100000 | > 100 | > 100 | > 100000 | > 100 | > 100 | > 100 | > 100000 | > 100 | > 100000 | > 100
